Test: xn = mol fraction of the nth substance listed
Settings: 101 kPa, Liquid; for speed of sound: Single path-length method; for mass density: Vibrating tube method; for viscosity: Concentric cylinders viscometry

CCCCCCCCCCCCCCCC [hexadecane] + CCCO
Settings | mass density [kg/m3] | speed of sound [m/s] | viscosity [mPa·s]
318.15 K, x2 = 0 | 756.05 | – | –
318.15 K, x2 = 0.1 | 755.74 | – | –
318.15 K, x2 = 0.2 | 756.07 | – | –
318.15 K, x2 = 0.3 | 756.67 | – | –
318.15 K, x2 = 0.4 | 757.58 | – | –
318.15 K, x2 = 0.5 | 758.84 | 1224 | –
318.15 K, x2 = 0.6 | 760.62 | 1213.3 | –
318.15 K, x2 = 0.7 | 763.14 | 1201.1 | –
318.15 K, x2 = 0.8 | 766.85 | 1185.1 | –
318.15 K, x2 = 0.9 | 772.59 | 1164.4 | –
323.15 K, x2 = 0 | 752.61 | 1247.1 | 1.823
323.15 K, x2 = 0.1 | 752.19 | 1237.9 | 1.708
323.15 K, x2 = 0.2 | 752.45 | 1230.5 | 1.639
323.15 K, x2 = 0.3 | 753 | 1222.9 | 1.587
323.15 K, x2 = 0.4 | 753.84 | 1214.7 | 1.537
323.15 K, x2 = 0.5 | 755.05 | 1205.6 | 1.484
323.15 K, x2 = 0.6 | 756.76 | 1195.1 | 1.432
323.15 K, x2 = 0.7 | 759.22 | 1182.9 | 1.375
323.15 K, x2 = 0.8 | 762.85 | 1167.2 | 1.308
323.15 K, x2 = 0.9 | 768.51 | 1147 | 1.223
328.15 K, x2 = 0 | 749.18 | 1229.3 | 1.671
328.15 K, x2 = 0.1 | 748.64 | 1220 | 1.565
328.15 K, x2 = 0.2 | 748.83 | 1212.4 | 1.499
328.15 K, x2 = 0.3 | 749.32 | 1204.7 | 1.452
328.15 K, x2 = 0.4 | 750.09 | 1196.5 | 1.403
328.15 K, x2 = 0.5 | 751.23 | 1187.4 | 1.352
328.15 K, x2 = 0.6 | 752.86 | 1176.8 | 1.303
328.15 K, x2 = 0.7 | 755.25 | 1164.8 | 1.248
328.15 K, x2 = 0.8 | 758.8 | 1149.4 | 1.186
328.15 K, x2 = 0.9 | 764.37 | 1129.5 | 1.106
333.15 K, x2 = 0 | 745.74 | 1211.8 | 1.537
333.15 K, x2 = 0.1 | 745.09 | 1202.2 | 1.438
333.15 K, x2 = 0.2 | 745.2 | 1194.5 | 1.375
333.15 K, x2 = 0.3 | 745.61 | 1186.7 | 1.331
333.15 K, x2 = 0.4 | 746.31 | 1178.5 | 1.284
333.15 K, x2 = 0.5 | 747.38 | 1169.2 | 1.237
333.15 K, x2 = 0.6 | 748.93 | 1158.7 | 1.19
333.15 K, x2 = 0.7 | 751.24 | 1146.8 | 1.138
333.15 K, x2 = 0.8 | 754.7 | 1131.5 | 1.079
333.15 K, x2 = 0.9 | 760.17 | 1112.1 | 1.004
338.15 K, x2 = 0 | 742.31 | 1194.4 | 1.421
338.15 K, x2 = 0.1 | 741.53 | 1184.6 | 1.329
338.15 K, x2 = 0.2 | 741.55 | 1176.7 | 1.266
338.15 K, x2 = 0.3 | 741.89 | 1168.8 | 1.226
338.15 K, x2 = 0.4 | 742.52 | 1160.5 | 1.179
338.15 K, x2 = 0.5 | 743.5 | 1151.2 | 1.134
338.15 K, x2 = 0.6 | 744.97 | 1140.7 | 1.087
338.15 K, x2 = 0.7 | 747.19 | 1128.8 | 1.039
338.15 K, x2 = 0.8 | 750.55 | 1113.7 | 0.9835
338.15 K, x2 = 0.9 | 755.91 | 1094.6 | 0.9119
343.15 K, x2 = 0 | 738.88 | 1177.5 | 1.316
343.15 K, x2 = 0.1 | 737.98 | 1167.2 | 1.23
343.15 K, x2 = 0.2 | 737.89 | 1159.1 | 1.168
343.15 K, x2 = 0.3 | 738.15 | 1151.1 | 1.131
343.15 K, x2 = 0.4 | 738.69 | 1142.7 | 1.085
343.15 K, x2 = 0.5 | 739.59 | 1133.3 | 1.042
343.15 K, x2 = 0.6 | 740.96 | 1122.7 | 0.9894
343.15 K, x2 = 0.7 | 743.08 | 1110.9 | 0.9461
343.15 K, x2 = 0.8 | 746.33 | 1095.9 | 0.8985
343.15 K, x2 = 0.9 | 751.58 | 1077.1 | 0.8305
